Assay results as given in patent publication US9670200B2, “Quaternary ammonium salt prodrugs” (Alkermes Pharma Ireland Limited, priority 2010, dated 2017).
Where two headings read alike, the source gives them in different places. Values belong to the compound of their own block, whether it stands above or below them.

Legend:
[1] = Pharmacokinetic evaluation of asenapine and asenapine prodrugs in rats; type: in vivo, Sprague-Dawley rats; conditions: rat, 10 mg/rat IM
Method: Animals: 18 Male Sprague-Dawley rats (Charles River Laboratories, Wilmington, Mass.) were used in the study. Three groups of 6 rats were used and are referred to in this study as Groups A, B and C. Rats were approximately 350-375 g at time of arrival. Rats are housed 2 per cage with ad libitum chow and water. Environmental conditions in the housing room: 64-67° F., 30% to 70% relative humidity, and 12:12-h light: dark cycle. All experiments were approved by the institutional animal care and use committee.
Test Compounds: The following formulations of Asenapine parent drug and prodrug compounds of the invention were used in the study.
Pharmacokinetics study: Rats were dosed IM by means of a 23 gauge, 1 in. needle with 1 cc syringe 0.3 mL suspension was withdrawn from the vial containing the test compound. The rat was injected in the muscles of the hind limb after anesthesia with isoflurane. Blood samples were collected via a lateral tail vein after brief anesthesia with Isoflurane. A 271/2 G needle and 1 cc syringe without an anticoagulant was used for the blood collection. Approximately 350 μL of whole blood was collected at each sampling time point of 6 hours, 24 hours and 2, 5, 7, 9, 12, 14, 21, 28, 35 days after administration. Once collected, whole blood was immediately transferred to tubes containing K2 EDTA, inverted 10-15 times and immediately placed on ice. The tubes were centrifuged for 2 minutes at >14,000 g′ s (11500 RPMs using Eppendorf Centrifuge 5417C, F45-30-11 rotor) at room temperature to separate plasma. Plasma samples were transferred to labeled plain tubes (MICROTAINER®; MFG# BD5962) and stored frozen at <−70° C.
Drug concentrations in plasma samples were analyzed by liquid chromatography-mass spectroscopy using appropriate parameters for each compound. Half-life, volume of distribution, clearance, maximal concentration, and AUC were calculated by using WinNonlin version 5.2 software (Pharsight, St. Louis, Mo.).

[2] = Text: At pH 4 and 5, 0.1 M citrate buffers were used, while for pH 6, 7 and 8a set of 0.1 M phosphate buffers were used. Each buffer also contained 0.2 M NaCl. No cosolvents or other potentially solubilizing components were included. Buffer preparations were subdivided in order to individually test the solubility of only one material in a given buffer sample.
[3] = Solution stability of asenapine prodrugs as a function of pH; type: physicochemical; conditions: 0.01M buffers pH 2.11-9.01 with acetonitrile, 25° C., HPLC at 1, 4, 10, 24 hours; compared with asenapine octanoate (FIGS. 1 and 2)
Method: The asenapine derived prodrugs were prepared at approximately 300 ug/mL in buffers with acetonitrile (see table of buffers below). The initial ratio of prodrug/parent was measured using a freshly prepared solution in unbuffered water. Acetonitrile was titrated into all samples as needed to ensure the complete dissolution of the compounds. The amount of acetonitrile varied depending on the solubility of each compound (see Note 1). 1.5 mL of each stability sample was transferred into a HPLC vial and the vials were maintained at 25° C. in the temperature controlled sample compartment of the HPLC. Each sample was assayed by HPLC after 1, 4, 10, and 24 hours for prodrug and asenapine content (see Note 2).
The fraction of prodrug remaining at each time point was calculated as Fraction Prodrug=(HPLC Area of Prodrug)/(HPLC area of prodrug+asenapine)(see Note 3). The loss of prodrug was then fit to the equation for first order decay: Fraction Prodrug=(Initial Fraction prodrug)*e^−kt where t=time (in hours) and k is the rate constant for decay. Finally, the half-lives were calculated as: t1/2=0.693/k
Note 1: The acetonitrile concentration is not expected to have a large impact on the degradation rate since the rate follows first order decay with respect to compound (ie, the rate constant is independent of the concentration). […]

decrease in plasma concentration over all the time points sampled ([1]; 6 hours to 35 days, compared with Asenapine or Asenapine palmitate prodrug): more gradual decrease
duration of asenapine pharmacokinetics in the animals ([1]; compared with Asenapine or Asenapine palmitate prodrug): longer duration
Structure (SMILES): CCC(C)(C)C(=O)OC[N+]1(C)CC2c3ccccc3Oc3ccc(Cl)cc3C2C1.[I-] (stereo not drawn) [Asenapine dimethyl butyrate prodrug, asenapine (α,α)-dimethyl butyrate iodide]

Cmax of the Asenapine released ([1]; plasma, compared with parent Asenapine formulation and Asenapine palmitate prodrug (FIG. 3)): lower
Structure (SMILES): CCC(C)(C)C(=O)OC[N+]1(C)CC2c3ccccc3Oc3ccc(Cl)cc3C2C1.[I-] (stereo not drawn) [ASN-83, 5-chloro-2-(((2,2-dimethylbutanoyl)oxy)methyl)-2-methyl-2,3,3a,12b-tetrahydro-1H-dibenzo[2,3:6,7]oxepino[4,5-c]pyrrol-2-ium iodide]

variation in solubility across the pH range studied [2]: less than 2 fold
Structure (SMILES): CCCCCCCCCCCCC(C)(C)C(=O)OC[N+]1(C)CCN(C2=Nc3ccccc3Nc3sc(C)cc32)CC1.[I-] [Compound 18, 1-(((2,2-dimethyltetradecanoyl)oxy)methyl)-1-methyl-4-(2-methyl-10H-benzo[b]thieno[2,3-e][1,4]diazepin-4-yl)piperazin-1-ium iodide]

Solution stability as a function of pH [3]: more stable
Structure (SMILES): CC(C)(C)C(=O)OC[N+]1(C)CC2c3ccccc3Oc3ccc(Cl)cc3C2C1.[Cl-] (stereo not drawn) [asenapine pivalate, asenapine pivalate prodrug]

Structure (SMILES): Cc1cc2c(s1)Nc1ccccc1N=C2N1CCN(C)CC1.O.O=C(O)c1cc2ccccc2c(Cc2c(O)c(C(=O)O)cc3ccccc23)c1O [olanzapine pamoate salt, olanzapine pamoate, reference compound]
variation in solubility across the pH range studied ([2]; room temperature, 0.1 M citrate (pH 4, 5) or phosphate (pH 6, 7, 8) buffers with 0.2 M NaCl, pH range 4-9 (FIG. 4)): > 10 fold
